Columns and labels:
HNF-4α = biological target: T1, HNF-4α (Rattus norvegicus, UniProt P22449); assay: Transfection assay: COS-7 cells cotransfected with (C3P)3-TK-CAT reporter and pSG5-HNF-4α; type: cell-based; set-up: expressed in transfected cells; host or cells: COS-7; conditions: free fatty acids added to culture medium of COS-7 cells (FIG. 4a)
T1 sequence (P22449 1-464 isoform P22449-2): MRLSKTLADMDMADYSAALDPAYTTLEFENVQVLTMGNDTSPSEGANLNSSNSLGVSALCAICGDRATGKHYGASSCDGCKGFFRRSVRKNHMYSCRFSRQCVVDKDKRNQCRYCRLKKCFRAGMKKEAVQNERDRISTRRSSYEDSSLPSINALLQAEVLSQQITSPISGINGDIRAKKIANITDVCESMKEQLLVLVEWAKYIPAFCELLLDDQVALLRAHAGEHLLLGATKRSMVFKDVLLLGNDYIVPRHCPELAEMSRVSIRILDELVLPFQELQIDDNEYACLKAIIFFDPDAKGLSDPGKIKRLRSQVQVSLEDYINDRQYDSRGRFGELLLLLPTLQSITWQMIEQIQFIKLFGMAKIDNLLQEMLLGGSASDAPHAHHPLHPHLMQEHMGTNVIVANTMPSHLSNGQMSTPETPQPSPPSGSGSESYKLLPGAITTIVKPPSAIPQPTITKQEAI
Method: a. […] Fold induction of CAT activity by transfected HNF-4I is determined by evaluating CAT activity in the presence of pSG5-HNF-4I as compared with pSG5 plasmid and as function of respective fatty acids added to the culture medium as indicated. The figure summarizes 3-4 independent experiments for each fatty acid. Mean ± S.E.
b. […] Fold induction refers to CAT activity in cells incubated with 3,3,12,12-tetramethyl-tetradecanedioic acid (∘), 3,3,14,14-tetramethyl-hexadecanedioic acid (□) and 3,3,16,16-tetramethyl-octadecanedioic acid (Δ) proligands normalized to the activity in cells incubated in the absence of added proligands.
COS-7 cells cotransfected for 6 h with the (C3P)3-TK-CAT reporter plasmid (5 μg) and with either the pSG5-HNF-4α expression plasmid ([…]) or the pSG5 plasmid (0.025 μg) added by calcium phosphate precipitation were cultured in serum free medium with fatty acids (complexed with albumin in a molar ratio of 6:1) added as indicated. β-Galactosidase expression vector pRSGAL (1 μg) added to each precipitate served as an internal control for transfection. The (C3P)3-TK-CAT construct was prepared by inserting a synthetic oligonucleotide encompassing the (−87/−66) Apo CIII promoter sequence (5′-[…]-3′) flanked by HindIII restriction site into pBLCAT2^47 upstream of the −105 bp thymidine kinase promoter. The construct containing three copies of the synthetic oligonucleotide in the direct orientation was selected and confirmed by sequencing.
The intracellular effect of HNF-4α ligands on HNF-4α mediated transcription was evaluated in COS-7 cells cotransfected with an expression vector for HNF-4α and with a CAT reporter plasmid driven by a thymidine kinase promoter and enhanced by one to three C3P copies of the apo CIII gene promoter. Transfected cells were incubated in the presence of free fatty acids and xenobiotic amphipathic carboxylates representing agonistic or antagonistic HNF-4α proligands.

[1] = dietary fatty acid; cited from earlier work
[2] = dietary fatty acid; cited from earlier work; remark: listed apart in the source

| effect on HNF-4α dependent transcription (CAT activity) (HNF-4α) | SMILES | plasma VLDL-, LDL- and HDL-cholesterol [1] | factor VII content and blood coagulability [2] | blood lipids [1] |
| --- | --- | --- | --- | --- |
| dose dependent activation | CCCCCCCCCCCCCC(=O)O [myristic(14:0), myristic(14:0) acid] | increase | – | – |
| suppressive | CCCCCCCCCCCCCCCCCC(=O)O [stearic(18:0), stearic(18:0) acid] | – | decrease | lowering |

Source: patent US20040171688A1, “Carboxylic acids and derivatives thereof and pharmaceutical compositions containing them” (priority 1997, published 2004)
